Data from BindingDB's records for doi:10.1128/AAC.01293-09 (Glaxosmithkline, 2010).

Key:
[1] = Inhibition of CXCR4-mediated chemotaxis in SDF1-stimulated human U937 cells treated 15 mins before SDF1 challenge measured after 2 hrs by luminescence assay
[2] = Inhibition of HIV1 HXB2 gp120-mediated viral infusion into HEK293 cells after 24 hrs by luciferase reporter gene assay in presence of 45 mg/ml human serum albumin
[3] = Inhibition of HIV1 HXB2 gp120-mediated viral infusion into HEK293 cells after 24 hrs by luciferase reporter gene assay

- IC50 [1]: 0.34 nM
- IC50 [2]: 1.71 nM
- IC50 [3]: 0.56 nM
Compound: CN1CCN(c2cccc3nc(CN(C)[C@H]4CCCc5cccnc54)c(CO)n23)CC1 [([5-(4-Methyl-1-piperazinyl)-2-({methyl[(8S)-5,6,7,8-tetrahydro-8-quinolinyl]amino}methyl)imidazo[1,2-a]pyridin-3-yl]methanol)]
